Here are results for 44 compounds from US12012403B2, “Aryl sulfonyl compounds as CCR6 inhibitors” (CHEMOCENTRYX, INC., priority 2021, dated 2024).

Structures are written as SMILES.

The assay concerns the target T1, human CCR6 (Homo sapiens, UniProt P51684).
T1 construct: expressed in transfected cells; host or cells: Ba/F3 cells (murine pro-B line), hCCR6-transfected, CMV promoter, sodium butyrate induction
T1 sequence (P51684 1-374): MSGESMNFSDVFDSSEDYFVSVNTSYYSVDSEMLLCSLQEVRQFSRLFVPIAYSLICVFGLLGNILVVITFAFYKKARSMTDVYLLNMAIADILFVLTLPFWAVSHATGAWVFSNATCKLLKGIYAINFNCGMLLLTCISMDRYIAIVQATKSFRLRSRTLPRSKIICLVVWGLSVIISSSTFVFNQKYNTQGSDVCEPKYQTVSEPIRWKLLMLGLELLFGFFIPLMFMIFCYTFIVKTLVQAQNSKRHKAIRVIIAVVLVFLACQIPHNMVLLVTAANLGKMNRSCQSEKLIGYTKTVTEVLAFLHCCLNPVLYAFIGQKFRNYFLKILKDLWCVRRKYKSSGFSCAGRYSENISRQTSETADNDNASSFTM
Briefly: Migration (chemotaxis) assay, hCCR6-transfected Ba/F3 cells toward CCL20. The class given is cell-based. To be noted: hCCR6-transfected Ba/F3 cells in human serum; recombinant human CCL20 10 nM; 37° C. 45 minutes; read-out: Potency (IC50 value in the migration assay). The source says: A chemotaxis assay can be used to determine the efficacy of potential receptor antagonists at blocking the migration mediated through chemokine receptors, such as CCR6. This assay is routinely performed using the ChemoTX® microchamber system with a 5-μm pore-sized polycarbonate membrane. Chemokine receptor-expressing cells are required for such an assay. In this case, Ba/F3 cells (Palacios et al., Nature, 309:126, 1984) transfected with the gene for human CCR6 under control of the CMV promotor were used. To begin such an assay, hCCR6-transfected Ba/F3 cells are first grown for 24 hr in medium supplemented with sodium butyrate, which increases CCR6 transcription via the CMV promotor. The prepared Ba/F3 cells, are collected by centrifugation at 400×g at room temperature, then suspended at 4 million/ml in human serum. The compound being tested is serially diluted from a maximum final concentration of 10 μM (or an equivalent volume of its solvent (DMSO)) and is then added to the cell/serum mixture. Separately, recombinant human CCL20 (MIP-3α/LARC) at its EC50 concentration (10 nM) is placed in the lower wells of the ChemoTX® plate. The 5-μm (pore size) polycarbonate membrane is placed onto the plate, and 20 μL of the cell/compound mixture is transferred onto each well of the membrane. The plates are incubated at 37° C. for 45 minutes, after which the polycarbonate membranes are removed and 5 μl of the DNA-intercalating dye CyQUANT (Invitrogen, Carlsbad, CA) is added to the lower wells. The amount of fluorescence, corresponding to the number of migrated cells, is measured using a Spectrafluor Plus plate reader (TECAN, San Jose, CA).
In the case of `Cc1nc2cc(-c3ccc(S(=O)(=O)N4CCC(Nc5ccc(C(F)(F)F)cn5)CC4)cc3)ccc2[nH]1` [Example 1.092], the IC50 lay in the range of 5 to 100 nM. The value for `O=C1Nc2ccc(-c3ccc(S(=O)(=O)N4CCC(Nc5ccc(C(F)(F)F)cn5)CC4)cc3)cc2C12CCNCC2` [Example 1.028] was 5 to 100 nM; that for `NC(=O)NC1CC2(C1)CN(c1ccc(S(=O)(=O)N3CCC(Nc4ccc(C(F)(F)F)cn4)CC3)cc1)C2` [Example 1.159] was 100 to 10000 nM. In the case of `N#Cc1c(N)[nH]c2ccc(-c3ccc(S(=O)(=O)N4CCC(Nc5ccc(C(F)(F)F)cn5)CC4)cc3)cc12` [Example 1.099] it was less than 5 nM. `CC(=O)NC1CCN(c2ccc(S(=O)(=O)N3CCC(Nc4ccc(C(F)(F)F)cn4)CC3)cc2)CC1` [Example 1.210]: the IC50 lay within 5 to 100 nM. The value for `CC(C)(C(N)=O)C1CCN(c2ccc(S(=O)(=O)N3CCC(Nc4ccc(C(F)(F)F)cn4)CC3)cc2)CC1` [Example 1.123] was 5 to 100 nM; that for `N#Cc1cn(CCNC(N)=O)c2ncc(-c3ccc(S(=O)(=O)N4CCC(Nc5ccc(C(F)(F)F)cn5)CC4)cc3)cc12` [Example 1.003] was less than 5 nM. The value for `O=C1NC(=O)C2(CCCN(c3ccc(S(=O)(=O)N4CCC(Nc5ccc(C(F)(F)F)cn5)CC4)cc3)C2)N1` (centres unmarked) [Example 1.224] was 100 to 10000 nM. `Nc1n[nH]c2ncc(-c3ccc(S(=O)(=O)N4CCC(Nc5ccc(C(F)(F)F)cn5)CC4)cc3)nc12` [Example 1.017]: the IC50 was in the range of 5 to 100 nM. In the case of `NC(=O)CN1Cc2ccc(-c3ccc(S(=O)(=O)N4CCC(Nc5ccc(C(F)(F)F)cn5)CC4)cc3)cc2C1=O` [Example 1.040] it was 5 to 100 nM. Turning to `N=[S@](=O)(c1ccc(-c2ccc3oc(N)nc3c2)cc1)N1CCC(Nc2ccc(C(F)(F)F)cn2)CC1` [Example 1.116], the IC50 fell in the range of 5 to 100 nM.

As for `O=C1Cc2cc(-c3ccc(S(=O)(=O)N4CCC(Nc5ccc(C(F)(F)F)cn5)CC4)cc3)ccc2CN1` [Example 1.012], the IC50 was less than 5 nM. As for `O=S(=O)(c1ccc(-c2cnc3[nH]ccc3c2F)cc1)N1CCC(Nc2ccc(C(F)(F)F)cn2)CC1` [Example 1.030], the IC50 was less than 5 nM.

For `CC1(CC(N)=O)CCN(c2ccc(S(=O)(=O)N3CCC(Nc4ccc(C(F)(F)F)cn4)CC3)cc2)CC1` [Example 1.136], the IC50 lay in the range of 5 to 100 nM. Turning to `CC(C)(C)OC(=O)NCCn1cc(C#N)c2cc(-c3ccc(S(=O)(=O)N4CCC(Nc5ccc(C(F)(F)F)cn5)CC4)cc3)cnc21` [Example 1.014], the IC50 was less than 5 nM. The value for `O=C1Nc2ccc(-c3ccc(S(=O)(=O)N4CCC(Nc5ccc(C(F)(F)F)cn5)CC4)cc3)cc2C12CCOCC2` [Example 1.036] was less than 5 nM; that for `NC(=O)C(=O)N1CCN(c2ccc(S(=O)(=O)N3CCC(Nc4ccc(C(F)(F)F)cn4)CC3)cc2)CC1` [Example 1.173] was 5 to 100 nM; that for `O=C1NC[C@@H]2CCN(c3ccc(S(=O)(=O)N4CCC(Nc5ccc(C(F)(F)F)cn5)CC4)cc3)C[C@H]12` (racemic) [Example 1.169] was 100 to 10000 nM. In the case of `NC(=O)CC1CCN(c2ccc(S(=O)(=O)N3CCC(Nc4ccc(C(F)(F)F)cn4)CC3)cc2)CC1` [Example 1.167] it was 5 to 100 nM.

`CN(C)C(=O)CC1CCN(c2ccc(S(=O)(=O)N3CCC(Nc4ccc(C(F)(F)F)cn4)CC3)cc2)CC1` [Example 1.134]: the IC50 was in the range of 100 to 10000 nM. The value for `CC(=O)N1CCCN(c2ccc(S(=O)(=O)N3CCC(Nc4ccc(C(F)(F)F)cn4)CC3)cc2)CC1` [Example 1.201] was 100 to 10000 nM; that for `O=S(=O)(c1ccc(N2CC[C@H](O)[C@@H](CO)C2)cc1)N1CCC(Nc2ccc(C(F)(F)F)cn2)CC1` [Example 1.181] was 5 to 100 nM. For the compound `Cc1cc(S(=O)(=O)N2CCC(Nc3ccc(C(F)(F)F)cn3)CC2)ccc1-c1ccc2c(c1)CC(=O)N2` [Example 1.018], the IC50 lay within 100 to 10000 nM. As for `NC(=O)N1CCC(c2ccc(S(=O)(=O)N3CCC(Nc4ccc(C(F)(F)F)cn4)CC3)cc2)CC1` [Example 1.216], the IC50 fell in the range of 5 to 100 nM. The value for `O=S(=O)(c1ccc(N2CCC(O)CC2)cc1)N1CCC(Nc2ccc(C(F)(F)F)cn2)CC1` [Example 1.156] was 5 to 100 nM; that for `NC(=O)c1n[nH]c2ccc(-c3ccc(S(=O)(=O)N4CCC(Nc5ccc(C(F)(F)F)cn5)CC4)cc3)cc12` [Example 1.095] was less than 5 nM. For the compound `COC(=O)c1cc(-c2ccc(S(=O)(=O)N3CCC(Nc4ccc(C(F)(F)F)cn4)CC3)cc2)cc2c1NC(=O)C2` [Example 1.027], the IC50 was less than 5 nM. In the case of `NC(=O)C1(O)CCN(c2ccc(S(=O)(=O)N3CCC(Nc4ccc(C(F)(F)F)cn4)CC3)cc2)CC1` [Example 1.166] it was 5 to 100 nM. The value for `Cc1nc2[nH]ccc2cc1-c1ccc(S(=O)(=O)N2CCC(Nc3ccc(C(F)(F)F)cn3)CC2)cc1` [Example 1.024] was less than 5 nM; that for `N#Cc1c[nH]c2cc(-c3ccc(S(=O)(=O)N4CCC(Nc5ccc(C(F)(F)F)cn5)CC4)cc3)ccc12` [Example 1.101] was 5 to 100 nM; that for `NC(=O)C1CCCN(c2ccc(S(=O)(=O)N3CCC(Nc4ccc(C(F)(F)F)cn4)CC3)cc2)C1` (centres unmarked) [Example 1.230] was 5 to 100 nM. In the case of `O=C1CO[C@@H]2CCN(c3ccc(S(=O)(=O)N4CCC(Nc5ccc(C(F)(F)F)cn5)CC4)cc3)C[C@@H]2N1` (racemic) [Example 1.170] it was 100 to 10000 nM; in that of `CN1CCC2(CCN(c3ccc(S(=O)(=O)N4CCC(Nc5ccc(C(F)(F)F)cn5)CC4)cc3)CC2)C1=O` [Example 1.157], 5 to 100 nM; in that of `CN(C)c1n[nH]c2ccc(-c3ccc(S(=O)(=O)N4CCC(Nc5ccc(C(F)(F)F)cn5)CC4)cc3)cc12` [Example 1.069], 5 to 100 nM. On to `O=S(=O)(c1ccc(N2CCC(c3ccn[nH]3)CC2)cc1)N1CCC(Nc2ccc(C(F)(F)F)cn2)CC1` [Example 1.222], for which the IC50 was in the range of 5 to 100 nM. The value for `Nc1n[nH]c2ncc(-c3ccc(S(=O)(=O)N4CCC(Nc5ccc(C(F)(F)F)cn5)CC4)cc3)cc12` [Example 1.068] was less than 5 nM. In the case of `Nc1nnc2ccc(-c3ccc(S(=O)(=O)N4CCC(Nc5ccc(C(F)(F)F)cn5)CC4)cc3)cn12` [Example 1.016] it was less than 5 nM. On to `NC(=O)NCC1CCN(c2ccc(S(=O)(=O)N3CCC(Nc4ccc(C(F)(F)F)cn4)CC3)cc2)CC1` [Example 1.146], for which the IC50 is less than 5 nM.

With `O=C1NCCC12CCN(c1ccc(S(=O)(=O)N3CCC(Nc4ccc(C(F)(F)F)cn4)CC3)cc1)CC2` [Example 1.153], the IC50 was 5 to 100 nM.

For `CC1(O)CCN(c2ccc(S(=O)(=O)N3CCC(Nc4ccc(C(F)(F)F)cn4)CC3)cc2)CC1` [Example 1.182], the IC50 lay within 5 to 100 nM.

Consider `CC(=O)N1CCN(c2ccc(S(=O)(=O)N3CCC(Nc4ccc(C(F)(F)F)cn4)CC3)cc2)CC1` [Example 1.226], for which the IC50 was 5 to 100 nM. Turning to `O=S(=O)(c1ccc(-c2ccc3c(c2)C2(CCOCC2)CN3)cc1)N1CCC(Nc2ccc(C(F)(F)F)cn2)CC1` [Example 1.034], the IC50 lay in the range of 5 to 100 nM.

Consider `CC1(C)Oc2cc(-c3ccc(S(=O)(=O)N4CCC(Nc5ccc(C(F)(F)F)cn5)CC4)cc3)ccc2NC1=O` [Example 1.019], for which the IC50 is 5 to 100 nM.

With `Nc1n[nH]c2ccc(-c3ccc(S(=O)(=O)N4CCC(Nc5ccc(C(F)(F)F)cn5)CC4)cc3)cc12` [Example 1.112], the IC50 is less than 5 nM.
